Patent US20260176270A1 (Exelixis, Inc., priority 2022, published 2026)
pIC50: −log10 of the molar value. Read-outs that look alike come from different tables or passages of the source.

How the values were obtained:
[1] = tested on: phosphorylation of CDK1 at Thr14 in HCC1806 cells; assay: Cell lysate AlphaLISA assay measuring inhibition of phosphorylation of CDK1 Thr14; type: cell-based; details: read-out: Cellular IC50
Procedure: (§1) Biochemical IC50 values were determined via ADP-Glo™ assay. Cellular IC50 values were determined via AlphaLISA assay.
Cell lysate AlphaLISA® assay measuring inhibition of phosphorylation of CDK1 Thr14. Inhibition of phosphorylation of CDK1 at Thr14 was determined using AlphaLISA® SureFire® Ultra™ Kit from Perkin Elmer (ALSU-PCDK1-A10K). HCC1806 cells were seeded at 2K cells per well (50 μl/well) in 384-well plates (Corning 3570) and stored overnight at 37° C. and 5% CO2. The following day, the compounds dissolved in DMSO were introduced to the cells and incubated for 4 hours at 37° C. and 5% CO2. The cells were then washed with PBS using Blue®Washer and 10 μl of lysis buffer containing protease inhibitor was added. The plate was placed on an orbital shaker (at 4° C.) for 30 minutes and stored overnight at −80° C. for complete lysing. The next day, the plates were thawed at room temperature for at least 30 min. Reagents were prepared in a dimmed light setting (<100 lumens). The assay was run by first adding 5 μl of the acceptor mix (reaction buffer 1: reaction buffer 2: activation buffer: acceptor beads 47:47:4:2), covering the plate with foil, shaking for 2 minutes and incubating at RT for 60 minutes. The donor mix (dilution buffer: donor beads 47:3) was then added at 5 μl per well, placed on the shaker for 2 minutes and incubated at RT for 60 minutes before reading the plates on a PHERAstar® plate reader. The results were normalized to DMSO (0% Inhibition) and 3 μM of reference compound.

PKMYT1 = target: T1, PKMYT1 (Homo sapiens, UniProt Q99640); assay: ADP-Glo PKMYT1 ATP-depletion assay; details: 50 nM PKMYT1, 13.3 nM CDK1, read-out: Biochemical IC50
T1 construct: PKMYT1 (93 kD, full length, N-terminal GST tag from Signal Chem); GST (N); purchased Signal Chem
T1 sequence (Q99640 1-499): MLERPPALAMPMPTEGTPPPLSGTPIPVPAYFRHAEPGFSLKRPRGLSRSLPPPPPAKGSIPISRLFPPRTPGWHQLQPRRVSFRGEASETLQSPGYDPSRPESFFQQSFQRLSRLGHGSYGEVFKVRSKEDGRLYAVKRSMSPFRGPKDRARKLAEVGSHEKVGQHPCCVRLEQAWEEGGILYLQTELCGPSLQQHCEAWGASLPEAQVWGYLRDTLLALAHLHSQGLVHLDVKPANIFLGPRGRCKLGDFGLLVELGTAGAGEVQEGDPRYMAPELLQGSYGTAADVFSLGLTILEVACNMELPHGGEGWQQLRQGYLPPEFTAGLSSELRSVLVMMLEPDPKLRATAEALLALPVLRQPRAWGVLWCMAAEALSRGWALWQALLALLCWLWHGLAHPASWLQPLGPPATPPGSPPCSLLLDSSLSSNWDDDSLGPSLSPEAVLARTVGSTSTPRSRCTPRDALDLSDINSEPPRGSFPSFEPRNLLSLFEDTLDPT
Procedure: as §1
ADP-Glo™ PKMYT1 ATP-depletion assay. The activity of PKMYT1 is measured using a luciferase-luciferin based ATP detection reaction to quantify ATP depletion resulting from kinase-catalyzed phosphoryl transfer to CDK1 or autophosphorylation of PKMYT1. The ADP generated as a byproduct of the reaction is converted to ATP and used to drive a luciferase reaction. Test compounds were dissolved in DMSO and dispensed into Corning 3824 384-well plates prior to the experiment such that the final DMSO concentration was <1%. To the compounds was added 3 μL of PKMYT1 (93 kD, full length, N-terminal GST tag from Signal Chem). The reaction was started by the addition of 2 μL of CDK1 (58 kDa, full length, N-terminal GST tag from Signal Chem) and ATP in assay buffer (50 mM Hepes, 40 mM NaCl, 10 mM MgCl2, 1 mM DTT, 0.1 mg/mL BSA, 2.5 mM MnCl2). Final assay concentrations were 50 nM PKMYT1, 13.3 nM CDK1, and 88 µM ATP. Plates were centrifuged for 1 minute at 1000 RPM and incubated at RT for 120 minutes. After the incubation period, ADP-Glo™ reagent was added and the plates were incubated for another 40 minutes before finally adding the kinase detection reagent. 30 minutes after the addition, plates were placed on a PHERAstar® plate reader and read using the Luminescence Protocol, integration time at 0.5 seconds.

Row | Compound | pIC50 ([1]; 4 hours) | pIC50 (PKMYT1) | pIC50 ([1]; Homo sapiens, HCC1806, 4 h)
1 | Cc1c(O)cccc1-c1c(N)c(C(N)=O)nc2cccc(F)c12 (single isomer, unassigned) [Compound 58, (M)-3-amino-5-fluoro-4-(3-hydroxy-2-methylphenyl)quinoline-2-carboxamide] | ≤ 5.30 | 5.30 to 6.00 | 
2 | Cc1ccc2[nH]ncc2c1-c1c(N)c(C(N)=O)cc2ncccc12 [Compound 144] |  | 6.30 to 7.30 | 5.30 to 6.00
3 | COc1cccc(-c2cc(C(N)=O)nc3c(C)ccc(C)c23)c1C [Compound 134] |  | ≤ 5.30 | ≤ 5.30
4 | Cc1ccc(O)c(C)c1-c1c(N)c(C(N)=O)cc2cccnc12 (single isomer, unassigned) [Compound 66, (P)-7-amino-8-(3-hydroxy-2,6-dimethyl-phenyl)quinoline-6-carboxamide] | 6.30 to 7.30 | > 7.30 | 
5 | NC(=O)c1cc2nccnc2c(-c2cccc(O)c2Cl)c1N (single isomer, unassigned) [Compound 106, (M)-7-amino-8-(2-chloro-3-hydroxyphenyl)quinoxaline-6-carboxamide] | ≤ 5.30 | ≤ 5.30 | 
6 | Cc1[nH]nc2cccc(-c3cc(C(N)=O)nc4ccccc34)c12 [Compound 19, 4-(3-Methyl-2H-indazol-4-yl)quinoline-2-carboxamide] |  | ≤ 5.30 | ≤ 5.30
7 | Cc1ccc(O)c(C)c1-c1c(N)c(C(N)=O)nc2ccc(Cl)cc12 (single isomer, unassigned) [Compound 54, (P)-3-amino-6-chloro-4-(3-hydroxy-2,6-dimethylphenyl)quinoline-2-carboxamide] | ≤ 5.30 | ≤ 5.30 | 
8 | Cc1c(O)cccc1-c1c(N)c(C(N)=O)nc2ccccc12 [Compound 18, 3-Amino-4-(3-hydroxy-2-methylphenyl)quinoline-2-carboxamide] |  | 6.30 to 7.30 | 5.30 to 6.00
9 | NC(=O)c1cc(-c2cccc3[nH]ncc23)c2ccccc2n1 [Compound 14, 4-(1H-Indazol-4-yl)quinoline-2-carboxamide] |  | ≤ 5.30 | ≤ 5.30
10 | Cc1ccc2[nH]ncc2c1-c1cc(C(N)=O)cc2nccnc12 [Compound 70, 8-(5-Methyl-1H-indazol-4-yl)quinoxaline-6-carboxamide] |  | ≤ 5.30 | ≤ 5.30
11 | NC(=O)c1cc2nccnc2c(-c2cccc3[nH]ncc23)c1N [Compound 108, 7-Amino-8-(1H-indazol-4-yl)quinoxaline-6-carboxamide] |  | 6.30 to 7.30 | 5.30 to 6.00
12 | Cc1c(O)cccc1-c1c(N)c(C(N)=O)cc2nc(O)c(C(F)(F)F)nc12 [Compound 137] |  | 5.30 to 6.00 | ≤ 5.30
13 | Cc1c(O)cccc1-c1c(N)c(C(N)=O)nc2cc(C(F)(F)F)ccc12 [Compound 59, 3-Amino-4-(3-hydroxy-2-methylphenyl)-7-(trifluoromethyl) quinoline-2-carboxamide] | 5.30 to 6.00 | ≤ 5.30 | 
14 | Cc1c(O)cccc1-c1c(N)c(C(N)=O)nc2cccnc12 (single isomer, unassigned) [Compound 4, (P)-3-Amino-4-(3-hydroxy-2-methylphenyl)-1,5-naphthyridine-2-carboxamide] | > 7.30 | > 7.30 | 
15 | Cc1ccc(O)c(C)c1-c1cc(C(N)=O)cc2cccnc12 [Compound 60, 8-(3-Hydroxy-2,6-dimethyl-phenyl)quinoline-6-carboxamide] |  | 6.00 to 6.30 | ≤ 5.30
16 | Cc1c(O)cccc1-c1c(N)c(C(N)=O)cc2cccnc12 (single isomer, unassigned) [Compound 62] | 6.30 to 7.30 | > 7.30 | 
17 | Cc1ccc2[nH]ncc2c1-c1c(N)c(C(N)=O)cc2cccnc12 [Compound 143] |  | 6.30 to 7.30 | 5.30 to 6.00
18 | Cc1ccc(O)c(C)c1-c1c(N)c(C(N)=O)nc2ccccc12 (atropisomer, axis not shown; (P)) [Compound 45, (P)-3-amino-4-(3-hydroxy-2,6-dimethylphenyl)quinoline-2-carboxamide] | ≤ 5.30 | 5.30 to 6.00 | 
19 | Cc1ccc(O)c(C)c1-c1c(N)c(C(N)=O)nc2nccnc12 (single isomer, unassigned) [Compound 128, (M)-7-Amino-8-(3-hydroxy-2,6-dimethylphenyl)pyrido[2,3-b]pyrazine-6-carboxamide] | ≤ 5.30 | 5.30 to 6.00 | 

Other lines, results leading:

Row | pIC50 ([1]; 4 hours) | pIC50 (PKMYT1) | pIC50 ([1]; Homo sapiens, HCC1806, 4 h) | Compound
20 |  | ≤ 5.30 | ≤ 5.30 | CC1=C(c2c(N)c(C(N)=O)nc3cccnc23)CCC[C@H]1O [Compound 309]
21 |  | 5.30 to 6.00 | ≤ 5.30 | NC(=O)c1nc2cccnc2c(-c2ccc3c[nH]nc3c2)c1N [Compound 204]
22 | ≤ 5.30 | ≤ 5.30 |  | COc1cncc(-c2c(N)c(C(N)=O)nc3cccnc23)c1C (atropisomer, axis not shown) [Compound 185]
23 | ≤ 5.30 | 5.30 to 6.00 |  | Cc1c(O)cccc1-c1c(N)c(C(N)=O)nc2cc(C(F)(F)F)cnc12 (atropisomer, axis not shown) [Compound 167]
24 | ≤ 5.30 | 5.30 to 6.00 |  | NC(=O)c1cc2nccnc2c(-c2cc(O)cnc2Cl)c1N (atropisomer, axis not shown) [Compound 163]
25 |  | 6.30 to 7.30 | 5.30 to 6.00 | Cc1cnc2c(-c3cccc(O)c3C)c(N)c(C(N)=O)cc2c1 [Compound 196]
26 |  | 6.00 to 6.30 | ≤ 5.30 | NC(=O)c1cc2nccnc2c(-c2cccc3sncc23)c1N [Compound 214]
27 | > 7.30 | > 7.30 |  | Cc1cnc2c(-c3c(C)ccc(O)c3C)c(N)c(C(N)=O)cc2n1 (atropisomer, axis not shown) [Compound 222]
28 | ≤ 5.30 | ≤ 5.30 |  | Cc1cnc2c(-c3c(C)ccc(O)c3C)c(N)c(C(N)=O)cc2n1 (atropisomer, axis not shown) [Compound 223]
29 |  | 6.30 to 7.30 | 5.30 to 6.00 | Cc1cccc(-c2c(N)c(C(N)=O)cc3cc(Cl)cnc23)c1C (atropisomer, axis not shown) [Compound 180]
30 | 6.30 to 7.30 | > 7.30 |  | COc1ccnc2c(-c3cccc(O)c3C)c(N)c(C(N)=O)cc12 [Compound 318]
31 |  | ≤ 5.30 | ≤ 5.30 | Cc1c(-c2c(N)c(C(N)=O)cc3nccnc23)ccc2oc(N)nc12 [Compound 197]
32 | 5.30 to 6.00 | 6.30 to 7.30 |  | NC(=O)c1nc2cccnc2c(-c2cccc3[nH]nc(F)c23)c1N (atropisomer, axis not shown) [Compound 305]
33 |  | 6.30 to 7.30 | 5.30 to 6.00 | NC(=O)c1nc2cccnc2c(-c2cncc3sccc23)c1N [Compound 230]
34 |  | 6.30 to 7.30 | 5.30 to 6.00 | Cc1c(O)cccc1-c1c(N)c(C(N)=O)cc2ccncc12 [Compound 335]
35 | ≤ 5.30 | ≤ 5.30 |  | COc1ccc2nc(C(N)=O)c(N)c(-c3cccc(O)c3C)c2n1 (atropisomer, axis not shown) [Compound 175]
36 |  | 5.30 to 6.00 | ≤ 5.30 | NC(=O)c1nc2cccnc2c(-c2cnn3ccccc23)c1N [Compound 323]
37 | 6.00 to 6.30 | 6.30 to 7.30 |  | Cc1ccc(-c2c(N)c(C(N)=O)nc3cccnc23)c(C)c1O [Compound 292]
38 |  | > 7.30 | 6.00 to 6.30 | Cc1c(O)cccc1-c1c(N)c(C(N)=O)cc2nc(N3CCOCC3)cnc12 [Compound 321]
